{
  "source": "patent US9433573B2",
  "about": "“Microfabricated nanopore device for sustained release of therapeutic agent” (Delpor, Inc., priority 2001, dated 2016)",
  "key": {"[1]": {"assay": "In vitro release of 125I-lysozyme from nanopore membrane implants", "text": "(§1) Lysozyme, an enzyme with a molecular weight intermediate between that of glucose and albumin (MW 12,000 Daltons) was used to measure diffusion kinetics through nanopore membranes both in vitro and in vivo. Radiolabeled (^125-I) lysozyme was obtained from ICN Biochemicals. Unlabeled lysozyme was obtained from Sigma Chemical Corp. Radiolabeled lysozyme was admixed with unlabeled lysozyme and loaded into implants as described above for albumin. In vitro release rates for three size membranes are plotted in FIG. 8. Lysozyme release rates are zero-order for membranes pore sizes of 13 nm and 49 nm."}, "[2]": {"set-up": "species or system rats", "conditions": "rat, in vivo, sc, 80 ug", "text": "as §1\nBlood levels of lysozyme in groups of three rats given either a single subcutaneous bolus of 80 μg or after implantation of a nanopore implant device designed to release lysozyme at a rate of 17 μg/day are shown in FIG. 9."}},
  "data": [
    {"substance": "lysozyme", "values": [
      {"measurement": "lysozyme release rates (kinetics)", "setting": "[1]; membrane pore sizes of 13 nm and 49 nm, in vitro", "value": "zero-order"},
      {"measurement": "flux of lysozyme versus initial concentration", "setting": "[1]; pore size of 13 nm or less, in vitro (data not shown)", "value": "independent of initial concentration"},
      {"measurement": "apparent half-life in blood stream", "setting": "[2]", "value": "less than several days"}
    ]}
  ]
}
